Paper PMC6256002 (British Journal of Clinical Pharmacology, 2018)
Like-named read-outs stand apart in the source and are kept apart here. Marks after values point to notes of the source that are not given here.

How the values were obtained:
[1] = cited from earlier work; for Fraction excreted in the urine: in humans, filgotinib unchanged, metabolite as such
[2] = for AUC0–24 h / Ae0–24 h (amount excreted in the urine over 24 h) / CLR (renal clearance) / t½,λz (apparent terminal half-life) / Cmax / AUC(0-t) / CL renal / half-life: arithmetic mean (CV%); for R (metabolite-to-parent ratio, AUC0–24 h): geometric mean (CV%); for Cmax: filgotinib 100 mg QD 10 days, capsule, fed, N = 10; for Time to steady state: predose (trough) concentrations, regardless of the age group; for AUC(0-t): AUC0–24 h; for CL renal: CLR (renal clearance); for half-life: t½,λz (apparent terminal half-life)
[3] = Effect of renal impairment; conditions: for AUC0–24 h / Ae0–24 h (amount excreted in the urine over 24 h) / CLR (renal clearance) / t½,λz (apparent terminal half-life) / R (metabolite-to-parent ratio, AUC0–24 h) / tmax / AUC(0-t) / CL renal / half-life: 100 mg QD; for AUC0–24 h / Ae0–24 h (amount excreted in the urine over 24 h) / CLR (renal clearance) / t½,λz (apparent terminal half-life) / Cmax / AUC(0-t) / CL renal / half-life: arithmetic mean (CV%); for R (metabolite-to-parent ratio, AUC0–24 h): geometric mean (CV%); for tmax: median (min–max); for Cmax: filgotinib 100 mg QD 10 days, tablet, fasted; for CLR lower (drop) compared with subjects with normal renal function: severe RI vs normal renal function; for AUC(0-t): AUC0–24 h; for CL renal: CLR (renal clearance); for half-life: t½,λz (apparent terminal half-life)
JAK1 = conditions: cited from earlier work
[4] = filgotinib 100 mg QD for 10 days
[5] = 100 mg QD, day 10, age 40–50 years
[6] = 100 mg QD, day 10, age 65–74 years
[7] = 100 mg QD, day 10, age 65–74 years, median (min–max)
[8] = 100 mg QD, day 10, age ≥75 years
[9] = 100 mg QD, day 10, age ≥75 years, median (min–max)
[10] = ≥75 years relative to 40–50 years, point estimate [90% CI]
[11] = both, human, in vivo, 100 mg, 100 mg QD, day 10, age 40–50 years
[12] = both, human, in vivo, 100 mg, 100 mg QD, day 10, age 65–74 years
[13] = both, human, in vivo, 100 mg, 100 mg QD, day 10, age ≥75 years
[14] = both, human, in vivo, 100 mg, day 10, mild RI
[15] = both, human, in vivo, 100 mg, day 10, moderate RI
[16] = both, human, in vivo, 100 mg, day 10, normal renal function
[17] = both, human, in vivo, 100 mg, day 10, severe RI

Nc1nc2cccc(-c3ccc(CN4CCS(=O)(=O)CC4)cc3)n2n1 [Metabolite]
Fraction excreted in the urine ([1]; no reference given): ≥ 50%
AUC0–24 h [2, 5]: 29.4 (27.3) μg.h ml^–1
Ae0–24 h (amount excreted in the urine over 24 h) [2, 5]: 34.3 (22.3) ^b % dose
CLR (renal clearance) [2, 5]: 1.25 (19.3) ^b l h^–1
t½,λz (apparent terminal half-life) [2, 5]: 17.8 (17.9) h
Ae0–24 h (amount excreted in the urine over 24 h) ([2]; 100 mg QD, day 10, age 40–50 years, listed as metabolite): 34.3 % dose
R (metabolite-to-parent ratio, AUC0–24 h) [2, 5]: 18.8 (25.1)
tmax ([2]; 100 mg QD, day 10, age 40–50 years, median (min–max)): 4.0 (2.0–5.0) h
AUC0–24 h [2, 6]: 34.2 (17.3) μg.h ml^–1
Ae0–24 h (amount excreted in the urine over 24 h) [2, 6]: 37.4 (13.2) ^c % dose
CLR (renal clearance) [2, 6]: 1.13 (20.9) ^c l h^–1
t½,λz (apparent terminal half-life) [2, 6]: 24.7 (23.3) h
R (metabolite-to-parent ratio, AUC0–24 h) [2, 6]: 19.4 (22.0)
tmax [2, 7]: 3.0 (3.0–5.0) h
AUC0–24 h [2, 8]: 40.9 (21.9) μg.h ml^–1
Ae0–24 h (amount excreted in the urine over 24 h) [2, 8]: 37.6 (15.4) ^b % dose
CLR (renal clearance) [2, 8]: 0.926 (29.5) ^b l h^–1
t½,λz (apparent terminal half-life) [2, 8]: 23.5 (21.2) h
Ae0–24 h (amount excreted in the urine over 24 h) ([2]; 100 mg QD, day 10, age ≥75 years, listed as metabolite): 37.6 % dose
R (metabolite-to-parent ratio, AUC0–24 h) [2, 8]: 18.4 (16.4)
tmax [2, 9]: 5.0 (3.0–5.0) h
Cmax ([2]; day 10, age 40–50 years): 1.69 (26.5) μg ml^–1
Cmax ([2]; day 10, age 65–74 years): 1.90 (15.5) μg ml^–1
Cmax ([2]; day 10, age ≥75 years): 2.20 (19.4) μg ml^–1
Apparent elimination half-life across age groups ([2]; mean over the three age groups): approximately 22 h
Time to steady state [2]: ≤ 4 dosing days
Fold-change in steady-state AUC0–24 h [2, 10]: 1.33 fold
Fold-change in steady-state Cmax [2, 10]: 1.25 fold
AUC0–24 h ([3]; day 10, mild RI): 30.1 (29.3) μg.h ml^–1
Ae0–24 h (amount excreted in the urine over 24 h) ([3]; day 10, mild RI): 35.7 (40.3) % dose
CLR (renal clearance) ([3]; day 10, mild RI): 1.21 (42.1) l h^–1
t½,λz (apparent terminal half-life) ([3]; day 10, mild RI): 25.4 (24.8) h
R (metabolite-to-parent ratio, AUC0–24 h) ([3]; day 10, mild RI): 15.9 (22.0)
tmax ([3]; day 10, mild RI): 3.3 (1.5–5) h
AUC0–24 h ([3]; day 10, moderate RI): 42.7 (38.4) μg.h ml^–1
Ae0–24 h (amount excreted in the urine over 24 h) ([3]; day 10, moderate RI): 29.9 (24.1) % dose
CLR (renal clearance) ([3]; day 10, moderate RI): 0.781 (47.8) l h^–1
t½,λz (apparent terminal half-life) ([3]; day 10, moderate RI): 31.7 (24.9) h
R (metabolite-to-parent ratio, AUC0–24 h) ([3]; day 10, moderate RI): 16.7 (35.8)
tmax ([3]; day 10, moderate RI): 2.3 (0.5–5) h
AUC0–24 h ([3]; day 10, normal renal function): 24.9 (31.7) μg.h ml^–1
Ae0–24 h (amount excreted in the urine over 24 h) ([3]; day 10, normal renal function): 37.4 (11.6) % dose
CLR (renal clearance) ([3]; day 10, normal renal function): 1.59 (24.5) l h^–1
t½,λz (apparent terminal half-life) ([3]; day 10, normal renal function): 20.8 (17.1) h
R (metabolite-to-parent ratio, AUC0–24 h) ([3]; day 10, normal renal function): 13.8 (21.5)
tmax ([3]; day 10, normal renal function): 3 (2–4) h
AUC0–24 h ([3]; day 10, severe RI): 66.6 (18.5) μg.h ml^–1
Ae0–24 h (amount excreted in the urine over 24 h) ([3]; day 10, severe RI): 32.1 (9.36) % dose
CLR (renal clearance) ([3]; day 10, severe RI): 0.488 (10.6) l h^–1
t½,λz (apparent terminal half-life) ([3]; day 10, severe RI): 43.6 (12.6) h
R (metabolite-to-parent ratio, AUC0–24 h) ([3]; day 10, severe RI): 26.0 (20.4)
tmax ([3]; day 10, severe RI): 3 (3–4) h
Cmax ([3]; day 10, mild RI, N = 6): 1.54 (31.3) μg ml^–1
Cmax ([3]; day 10, moderate RI, N = 6): 2.35 (35.4) μg ml^–1
Cmax ([3]; day 10, normal renal function, N = 9): 1.63 (31.9) μg ml^–1
Cmax ([3]; day 10, severe RI, N = 3): 3.43 (14.6) μg ml^–1
CLR drop compared with subjects with normal renal function ([3]; moderate RI vs normal renal function): 51%
Steady-state plasma concentrations reached ([3]; moderate and severe RI): 5 days
Steady-state plasma concentrations reached ([3]; normal renal function and mild RI): 3 days
CLR lower (drop) compared with subjects with normal renal function [3]: 69%
Reduced potency versus filgotinib (JAK1; human whole-blood assay): 19 fold

O=C(Nc1nc2cccc(-c3ccc(CN4CCS(=O)(=O)CC4)cc3)n2n1)C1CC1 [Filgotinib]
Impact of food on bioavailability [1]: no impact
Fraction excreted in the urine ([1]; no reference given): < 10%
Eliminated in urine (filgotinib and its metabolites) ([1]; no reference given): > 80%
Ae0–24 h (amount excreted in the urine over 24 h) [2, 5]: 8.01 (26.5) ^b % dose
Ae0–24 h (amount excreted in the urine over 24 h) ([2]; 100 mg QD, day 10, age 40–50 years, listed as filgotinib): 8.01 % dose
Ae0–24 h (amount excreted in the urine over 24 h) [2, 6]: 6.55 (14.3) ^c % dose
Ae0–24 h (amount excreted in the urine over 24 h) ([2]; 100 mg QD, day 10, age 65–74 years, listed as filgotinib): 6.55 % dose
tmax [2, 7]: 2.0 (0.5–3.0) h
Ae0–24 h (amount excreted in the urine over 24 h) [2, 8]: 7.24 (16.9) ^b % dose
Ae0–24 h (amount excreted in the urine over 24 h) ([2]; 100 mg QD, day 10, age ≥75 years, listed as filgotinib): 7.24 % dose
tmax [2, 9]: 2.0 (0.5–3.0) h
tmax ([2]; both, human, in vivo, 100 mg): 2 h
AUC(0-t) [2, 11]: 1600 ng·h/mL
AUC(0-t) [2, 12]: 1790 ng·h/mL
AUC(0-t) [2, 13]: 2220 ng·h/mL
CL renal [2, 11]: 92.5 mL/min
CL renal [2, 12]: 65 mL/min
CL renal [2, 13]: 55.5 mL/min
half-life [2, 11]: 6.07 h
half-life [2, 12]: 5.83 h
half-life [2, 13]: 6.9 h
Time to steady state [2]: steady state by the second dosing day
Fold-change in steady-state AUC0–24 h [2, 10]: 1.40 fold
Safety and tolerability [4]: generally safe and well tolerated
Ae0–24 h (amount excreted in the urine over 24 h) ([3]; day 10, mild RI): 5.37 (42.1) % dose
Ae0–24 h (amount excreted in the urine over 24 h) ([3]; day 10, moderate RI): 4.34 (51.2) % dose
Ae0–24 h (amount excreted in the urine over 24 h) ([3]; day 10, normal renal function): 7.61 (35.4) % dose
Ae0–24 h (amount excreted in the urine over 24 h) ([3]; day 10, severe RI): 2.08 (34) % dose
Steady state in plasma reached by ([3]; all renal function groups): ≤ 2 days
AUC(0-t) [3, 14]: 1890 ng·h/mL
AUC(0-t) [3, 15]: 2690 ng·h/mL
AUC(0-t) [3, 16]: 1820 ng·h/mL
AUC(0-t) [3, 17]: 2640 ng·h/mL
CL renal [3, 14]: 49.2 mL/min
CL renal [3, 15]: 31.5 mL/min
CL renal [3, 16]: 74.2 mL/min
CL renal [3, 17]: 15 mL/min
tmax ([3]; both, human, in vivo, 100 mg, tmax, day 10, moderate RI): 0.6 h
tmax ([3]; both, human, in vivo, 100 mg, tmax, day 10, normal renal function): 0.8 h
half-life [3, 15]: 10.6 h
half-life [3, 16]: 5.42 h
half-life [3, 17]: 9.03 h
Time after dosing at which Cmax was reached ([3]; day 10): 1 h
CLR lower (drop) compared with subjects with normal renal function [3]: 80%
Selectivity for JAK1 over JAK2 (JAK1; in human whole blood): 30 times
